In BigSolDB 2.1:

CC(=O)Oc1ccc(C(c2ccc(OC(C)=O)cc2)c2ccccn2)cc1
solubility (mole fraction)
Details	288.15 K	293.15 K	298.15 K	303.15 K	308.15 K
in DMAc	0.0391	0.0448	0.0512	0.0583	0.0659
in DMF	0.0372	0.0429	0.0492	0.0561	0.0638
in NMP	0.0643	0.0703	0.0768	0.0837	0.0909
in THF	0.0192	0.0237	0.0291	0.0355	0.0431
in acetone	0.0124	0.0154	0.0189	0.0231	0.0281
in acetonitrile	0.0112	0.0135	0.0162	0.0193	0.0229
in ethanol	0.000471	0.000639	0.000852	0.00113	0.00149
in isopropanol	0.000238	0.000327	0.000443	0.000599	0.000804
in methanol	0.000961	0.00123	0.00155	0.00196	0.00245
in n-butanol	0.000393	0.000537	0.000719	0.000968	0.00128
in n-propanol	0.000462	0.000608	0.000788	0.00102	0.00131
in transcutol	0.00761	0.0092	0.011	0.0131	0.0156
in water	1.32e-07	1.56e-07	1.83e-07	2.14e-07	2.49e-07

Details	solubility (mole fraction)
in PEG-400, 288.15 K	0.0132
in PEG-400, 293.15 K	0.0154
in PEG-400, 298.15 K	0.0179
in PEG-400, 303.15 K	0.0206
in PEG-400, 308.15 K	0.0237
